Data: patent publication US20130267474A1, “NOVEL PHYTOCHEMICALS FROM EXTRACTS OF MAPLE SYRUPS AND MAPLE TREES AND USES THEREOF” (UNIVERSITY OF RHODE ISLAND, priority 2010, published 2013)
Where two headings read alike, the source gives them in different places.

Columns and labels:
[1] = DPPH radical scavenging (antioxidant) assay; format: biochemical; settings: Table 10; mean ± standard deviation; 30 min, 515 nm; read-out: IC50 (μM), DPPH radical scavenging
Description: The DPPH radical scavenging activity of ascorbic acid (vitamin C) and the synthetic commercial antioxidant, butylated hydroxytoluene (BHT) are also assayed as positive controls (see Table 10). […] Absorbance is determined after 30 min at 515 nm, and the scavenging capacity (SC) is calculated as SC %=[(A0−A1/A0)]×100, where A0 is the absorbance of the reagent blank and A1 is the absorbance of the test samples. The control contained all reagents except the compounds, and all tests are performed in triplicate.
Absorbance is determined after 30 min at 515 nm, and the scavenging capacity (SC) is calculated as SC %=[(A0−A1/A0)]×100 where A0 is the absorbance of the reagent blank, and A1 is the absorbance with test samples. The control contained all reagents except the compounds and all tests are performed in triplicate.

[2] = test system: HT-29 (human colon adenocarcinoma); assay: MTS cytotoxicity / antiproliferative assay; format: cell-based; settings: for HT-29 48 h IC50 / HT-29 72 h IC50: ginnalins
Description: (§1) Cell lines included three human colon cancer cells: HT-29 (human colon adenocarcinoma), HCT116 (human colon carcinoma) and Caco-2 (human epithelial colorectal adenocarcinoma). In addition, normal human colon cells are included: CCD-^18Co (human colon fibroblasts). All cell lines are obtained from the American Type Culture Collection (ATCC, Rockville, Md., USA) and maintained at the University of Rhode Island.
(§2) The assay is carried out to measure the IC50 values for samples. […] Test samples and a positive control, etoposide 4 mg/mL (Sigma), are solubilized in DMSO by sonication. […] Control wells are also included on all plates. […] Each point on the curve is […]. Data (see tables 6 to 9) are expressed as mean±SE for three replications on each cell line.

[3] = test system: HCT-116 (human colon carcinoma); assay: MTS cytotoxicity / antiproliferative assay; format: cell-based; settings: for HCT-116 48 h IC50 / HCT-116 72 h IC50: ginnalins
Description: as §1, §2

[4] = test system: Caco-2 (human epithelial colorectal adenocarcinoma); assay: MTS cytotoxicity / antiproliferative assay; format: cell-based; settings: for Caco-2 48 h IC50 / Caco-2 72 h IC50: ginnalins
Description: as §1, §2

[5] = test system: CCD-18Co (normal human colon fibroblasts); assay: MTS cytotoxicity / antiproliferative assay; format: cell-based; settings: 72 h; for CCD-18Co 72 h IC50: ginnalins
Description: as §1, §2

[6] = Homo sapiens, HT-29, 72 h, 72 h, pure isolated compounds, read-out: Antiproliferative activity HT-29 72 h (IC50)
[7] = Homo sapiens, HT-29, 72 h, Table 6 maple compounds, 72 h, unit inferred, read-out: HT-29 72 h(IC50)
[8] = Homo sapiens, HCT-116, 48 h, read-out: Antiproliferative activity HCT-116 48 h (IC50), 48 h, pure isolated compounds
[9] = Homo sapiens, HCT-116, 48 h, read-out: HCT-116 48 h(IC50), Table 6 maple compounds, 48 h, unit inferred
[10] = Homo sapiens, HCT-116, 72 h, 72 h, pure isolated compounds, read-out: Antiproliferative activity HCT-116 72 h (IC50)
[11] = Homo sapiens, HCT-116, 72 h, 72 h, range given for the group, read-out: IC50 against HCT-116 cells at 72 h (activity ranking)
[12] = Homo sapiens, HCT-116, 72 h, Table 6 maple compounds, 72 h, unit inferred, read-out: HCT-116 72 h(IC50)
[13] = Homo sapiens, Caco-2, 48 h, read-out: Antiproliferative activity Caco-2 48 h (IC50), 48 h, pure isolated compounds
[14] = Homo sapiens, Caco-2, 72 h, 72 h, pure isolated compounds, read-out: Antiproliferative activity Caco-2 72 h (IC50)
[15] = Homo sapiens, HT-29, 48 h, read-out: Antiproliferative activity HT-29 48 h (IC50), 48 h, pure isolated compounds
[16] = Homo sapiens, HCT-116, 72 h, 72 h, range given for the group, unit inferred, read-out: IC50 against HCT-116 cells at 72 h (moderately active group)
[17] = Homo sapiens, CCD-18Co, pure isolated compounds, read-out: Antiproliferative activity CCD-8Co 72 h (IC50)
[18] = Homo sapiens, Caco-2, 48 h, read-out: Caco-2 48 h(IC50), Table 6 maple compounds, 48 h, unit inferred
[19] = Homo sapiens, Caco-2, 72 h, Table 6 maple compounds, 72 h, unit inferred, read-out: Caco-2 72 h(IC50)
[20] = Homo sapiens, HT-29, 48 h, read-out: HT-29 48 h(IC50), Table 6 maple compounds, 48 h, unit inferred
[21] = Homo sapiens, CCD-18Co, Table 6 maple compounds, unit inferred, read-out: CCD-18Co 72 h(IC50)

Compound	IC50 [1]	IC50 [2, 6]	IC50 [2, 7]	IC50 [3, 8]	IC50 [3, 10]	IC50 [3, 11]	IC50 [3, 12]	IC50 [4, 14]	IC50 [2, 15]	IC50 [4, 19]	also measured
COc1cc(C(CO)C(c2ccc(O)c(OC)c2)c2ccc(O)c(OC)c2)ccc1O (stereo not shown) [compound 54, Quebecol]		86.1 ± 0.8 µM		95.3 ± 0.6 µM	76.2 ± 1.2 µM			78.5 ± 1.4 µM	103 ± 1.7 µM		IC50 [4, 13]: 98.2 ± 1.5 µM; IC50 [3, 16]: 75 to 85 µM; IC50 [5, 17]: 120 ± 1.5 µM
Oc1ccccc1O [compound 23, catechol]		70.3 ± 2 µM		86 ± 2.4 µM	63 ± 1.3 µM	42 to 67 µM		64.1 ± 2.5 µM	99.4 ± 2.1 µM		IC50 [4, 13]: 71.5 ± 2.3 µM; IC50 [5, 17]: 115 ± 2.7 µM
O=C(OC[C@H]1OC[C@H](O)[C@@H](O)[C@@H]1O)c1cc(O)c(O)c(O)c1 [compound 71, ginnalin-B]											Caco-2 48 h IC50 ([4]; 48 h): 31.1 ± 1.9 µg/mL; Caco-2 72 h IC50 ([4]; 72 h): 22.6 ± 1.9 µg/mL; IC50 ([4]; Table 6 maple compounds, 72 h, unit inferred, read-out: Caco-2 72 h(IC50)): 71.6 µM; IC50 ([4]; read-out: Caco-2 48 h(IC50), Table 6 maple compounds, 48 h, unit inferred): 98.7 µM; HT-29 48 h IC50 ([2]; 48 h): 36.2 ± 1.5 µg/mL; HT-29 72 h IC50 ([2]; 72 h): 27.3 ± 0.6 µg/mL; IC50 ([2]; Table 6 maple compounds, 72 h, unit inferred, read-out: HT-29 72 h(IC50)): 86.5 µM; IC50 ([2]; read-out: HT-29 48 h(IC50), Table 6 maple compounds, 48 h, unit inferred): 98.9 µM; HCT-116 48 h IC50 ([3]; 48 h): 25.1 ± 1.8 µg/mL; HCT-116 72 h IC50 ([3]; 72 h): 20.0 ± 2.0 µg/mL; IC50 ([3]; Table 6 maple compounds, 72 h, unit inferred, read-out: HCT-116 72 h(IC50)): 50.9 µM; IC50 ([3]; read-out: HCT-116 48 h(IC50), Table 6 maple compounds, 48 h, unit inferred): 66.8 µM; CCD-18Co 72 h IC50 [5]: 47.1 ± 5.3 µg/mL; IC50 ([5]; Table 6 maple compounds, unit inferred, read-out: CCD-18Co 72 h(IC50)): 107 µM
COc1cc([C@@H](O)[C@@H](CO)Oc2ccc(CCCO)cc2OC)ccc1O [compound 29, threo-guaiacylglycerol-β-O-4′-dihydroconiferyl alcohol]	139 ± 13.3 µM										
catechol [compound 23]	10100 ± 1670 µM										
catechaldehyde [compound 14]	694 ± 110 µM										
O=C(OC[C@H]1OC[C@H](OC(=O)c2cc(O)c(O)c(O)c2)[C@@H](O)[C@@H]1O)c1cc(O)c(O)c(O)c1 [Ginnalin A]											Caco-2 48 h IC50 ([4]; 48 h): 28.8 ± 1.8 µg/mL; Caco-2 72 h IC50 ([4]; 72 h): 21.7 ± 1.0 µg/mL; HT-29 48 h IC50 ([2]; 48 h): 31.0 ± 2.6 µg/mL; HT-29 72 h IC50 ([2]; 72 h): 24.1 ± 1.3 µg/mL; HCT-116 48 h IC50 ([3]; 48 h): 21.5 ± 1.6 µg/mL; HCT-116 72 h IC50 ([3]; 72 h): 16.3 ± 2.1 µg/mL; CCD-18Co 72 h IC50 [5]: 46.6 ± 3.6 µg/mL
O=Cc1ccc(O)c(O)c1 [compound 14, catechaldehyde]		63.9 ± 1.6 µM	63.9 µM	63.3 ± 1.3 µM	52.9 ± 1.4 µM	42 to 67 µM	52.9 µM	58.9 ± 1.9 µM	71.6 ± 1.5 µM	58.9 µM	IC50 [4, 13]: 73.2 ± 1.3 µM; IC50 [4, 18]: 73.2 µM; IC50 [2, 20]: 71.6 µM; IC50 [3, 9]: 63.3 µM; IC50 [5, 21]: 126 µM; IC50 [5, 17]: 126 ± 4.6 µM
5-(3″,4″-dimethoxyphenyl)-3-hydroxy-3-(4′-hydroxy-3′-methoxybenzyl)-4-hydroxymethyl-dihydrofuran-2-one [compound 24]	254 ± 32.5 µM										
COc1cc(C2Oc3c(OC)cc(CCCO)cc3C2CO)cc(OC)c1O (stereo not shown) [compound 4]			68.2 µM				59.1 µM			70.9 µM	IC50 [4, 18]: 85 µM; IC50 [2, 20]: 88.7 µM; IC50 [3, 9]: 78 µM; IC50 [5, 21]: 99.6 µM
OCCc1ccc(O)cc1 [compound 50, tyrosol]		114 ± 1.8 µM		115 ± 1.5 µM	94.3 ± 1.8 µM	94 to 110 µM		100 ± 2.6 µM	128 ± 2.3 µM		IC50 [4, 13]: 112 ± 1.9 µM; IC50 [5, 17]: 145 ± 4.1 µM
COc1cc(C(O)C(CO)Oc2c(OC)cc(C(O)C(O)CO)cc2OC)ccc1O (stereo not drawn) [compound 25, (erythro,erythro)-1-[4-[2-hydroxy-2-(4-hydroxy-3-methoxyphenyl)-1-(hydroxymethyl)ethoxy]-3,5-dimethoxyphenyl]-1,2,3-propanetriol]	97.8 ± 24 µM										

Now from value to compound, other results behind:

IC50 [1]	Compound	IC50 [2, 6]	IC50 [2, 7]	IC50 [3, 8]	IC50 [3, 10]	IC50 [3, 11]	IC50 [3, 12]	IC50 [4, 14]	IC50 [2, 15]	IC50 [4, 19]	also measured
1810 ± 266 µM	COc1cc(C=O)ccc1O [compound 15, vanillin]	114 ± 1.5 µM	114 µM	120.3 ± 1 µM	110 ± 1.7 µM	94 to 110 µM	110 µM				IC50 [3, 9]: 120 µM
164 ± 15.2 µM	COc1cc(C(O)C(CO)Oc2ccc(C(O)C(O)CO)cc2OC)ccc1O (stereo not shown) [compound 27]										
925 ± 179 µM	dehydroconiferyl alcohol [compound 3]										
422.9 ± 2.4 µM	O=C(CO)c1ccc(O)c(O)c1 [compound 11, 2-hydroxy-3′,4′-dihydroxyacetophenone]									86 µM	IC50 [4, 18]: 92.5 µM
322 ± 31.9 µM	COc1cc(/C=C/CO)cc(OC)c1O [compound 20, syringenin]	113 ± 1.5 µM	113 µM	123.5 ± 1.1 µM	108 ± 1.5 µM	94 to 110 µM	108 µM		126 ± 3 µM		IC50 [2, 20]: 126 µM; IC50 [3, 9]: 124 µM
1540.9 ± 0.5 µM	COc1cc(CC(CO)C(CO)Cc2ccc(O)c(OC)c2)ccc1O (stereo not shown) [compound 2, secoisolariciresinol]	68.2 ± 1.4 µM		78 ± 2.3 µM	59.1 ± 1.5 µM	42 to 67 µM		70.9 ± 2.3 µM	88.7 ± 2.2 µM		IC50 [4, 13]: 85 ± 3.8 µM; IC50 [5, 17]: 99.6 ± 4.9 µM
578.5 ± 1.3 µM	COc1cc(/C=C/c2ccc(O)c(OC)c2)ccc1O [compound 10, (E)-3,3′-dimethoxy-4,4′-dihydroxystilbene]									93.1 µM	
258 ± 33.8 µM	syringic acid [compound 19]										
479 ± 42.1 µM	COc1cc2ccc(=O)oc2c(O)c1O [compound 9, fraxetin]	93.4 ± 2.6 µM	93.4 µM	112 ± 1.8 µM	84.5 ± 1.6 µM		84.5 µM	101 ± 1.3 µM	101 ± 1.2 µM	101 µM	IC50 [2, 20]: 101 µM; IC50 [3, 9]: 112 µM; IC50 [3, 16]: 75 to 85 µM
655 ± 14.4 µM	COc1cc2ccc(=O)oc2cc1O [compound 8, scopoletin]	70 ± 1.3 µM	70.2 µM	68.1 ± 1 µM	60.6 ± 2 µM	42 to 67 µM	60.6 µM	82 ± 2 µM	78.7 ± 1.2 µM	82 µM	IC50 [4, 13]: 89.3 ± 0.9 µM; IC50 [4, 18]: 89.3 µM; IC50 [2, 20]: 78.7 µM; IC50 [3, 9]: 68.1 µM; IC50 [5, 21]: 103 µM; IC50 [5, 17]: 103 ± 5.9 µM
814 ± 37.7 µM	COc1cc(C(O)C(CO)Oc2ccc(C(O)C(O)CO)cc2OC)ccc1O (stereo not shown) [compound 28]										
740.2 ± 3.4 µM	COc1ccc(C2OC(=O)C(O)(Cc3ccc(OC4OC(C)C(O)C(O)C4O)c(OC)c3)C2CO)cc1OC [compound 7, [3-[4-[(6-deoxy-α-L-mannopyranosyl)oxy]-3-methoxyphenyl]methyl]-5-(3,4-dimethoxyphenyl)dihydro-3-hydroxy-4-(hydroxymethyl)-2(3H)-furanone]		98.2 µM				103 µM			96.8 µM	
138 ± 28.2 µM	COc1cc(C(=O)C(O)CO)ccc1O (stereo not shown) [compound 22, C-veratroylglycol]	88.6 ± 1.3 µM	88.6 µM	82.9 ± 2.1 µM	66.7 ± 1.5 µM	42 to 67 µM	66.7 µM	90.8 ± 1 µM	96 ± 1.5 µM	90.8 µM	IC50 [4, 13]: 101 ± 1.6 µM; IC50 [4, 18]: 101 µM; IC50 [2, 20]: 96 µM; IC50 [3, 9]: 82.9 µM
